Assay results from patent publication US20230085307A1, “PYRIDAZINONE COMPOUND AND HERBICIDE” (NISSAN CHEMICAL CORPORATION, priority 2019, published 2023).

Assays:
late watergrass = test: Test Example 2: herbicidal activity, application during weed generation under submerged conditions (Table 17, symbol A); format: in vivo, late watergrass (Echinochloa oryzicola); conditions: AAH 320 g/ha; application during weed generation, submerged conditions
In short: (§1)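 3-wk visual-criteria score after one water-surface dose. Emulsion formulation, water-diluted to set rate; applied at 1–2 leaf stage; alluvial soil, 4 cm standing water; seeds co-sown; greenhouse 25–30° C.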

Japanese bulrush = test: Test Example 2: herbicidal activity, application during weed generation under submerged conditions (Table 17, symbol B); format: in vivo, Japanese bulrush (Schoenoplectus juncoides); conditions: AAH 320 g/ha; application during weed generation, submerged conditions
In short: as §1

oval-leafed pondweed = test: Test Example 2: herbicidal activity, application during weed generation under submerged conditions (Table 17, symbol C); format: in vivo, oval-leafed pondweed (Monochoria vaginalis); conditions: AAH 320 g/ha; application during weed generation, submerged conditions
In short: as §1

barnyard grass [1] = test: Test Example 3: herbicidal effect by foliage application, Wagner pot (Table 18, symbol H); format: in vivo, barnyard grass (Echinochloa crus-galli); conditions: amount of applied herbicide 320 g/ha
In short: (§2)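 Plants were sown in alluvial soil held under 0.1–0.5 cm standing water and grown 14 days in a greenhouse at 25–30 °C. An emulsifiable formulation, water-diluted to the set dose, was then sprayed onto the foliage, and effects were scored three weeks later using previously defined criteria.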

Chinese sprangletop = test: Test Example 3: herbicidal effect by foliage application, Wagner pot (Table 18, symbol D); format: in vivo, chinese sprangletop (Leptochloa chinensis); conditions: amount of applied herbicide 320 g/ha
In short: as §2

rice flat sedge = test: Test Example 3: herbicidal effect by foliage application, Wagner pot (Table 18, symbol E); format: in vivo, rice flat sedge (Cyperus iria); conditions: amount of applied herbicide 320 g/ha
In short: as §2

southern crabgrass [2] = test: Test Example 4: herbicidal effect by soil treatment (Table 19, symbol F); format: in vivo, southern crabgrass (Digitaria ciliaris); conditions: amount of applied herbicide 320 g/ha
In short: (§3)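 Step 1: sow seeds in sterilized diluvial soil, cover ~1.5 cm. Step 2: spray diluted emulsion onto soil surface at predetermined rate. Step 3: greenhouse, 25–30° C, three weeks. Step 4: grade effect on each plant by earlier criteria.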

green foxtail [3] = test: Test Example 4: herbicidal effect by soil treatment (Table 19, symbol G); format: in vivo, green foxtail (Setaria viridis); conditions: amount of applied herbicide 320 g/ha
In short: as §3

barnyard grass [4] = test: Test Example 4: herbicidal effect by soil treatment (Table 19, symbol H); format: in vivo, barnyard grass (Echinochloa crus-galli); conditions: amount of applied herbicide 320 g/ha
In short: as §3

wild oat [5] = test: Test Example 4: herbicidal effect by soil treatment (Table 19, symbol I); format: in vivo, wild oat (Avena fatua); conditions: amount of applied herbicide 320 g/ha
In short: as §3

blackgrass [6] = test: Test Example 4: herbicidal effect by soil treatment (Table 19, symbol J); format: in vivo, blackgrass (Alopecurus myosuroides); conditions: amount of applied herbicide 320 g/ha
In short: as §3

Italian ryegrass [7] = test: Test Example 4: herbicidal effect by soil treatment (Table 19, symbol K); format: in vivo, Italian ryegrass (Lolium multiflorum); conditions: amount of applied herbicide 320 g/ha
In short: as §3

windgrass [8] = test: Test Example 4: herbicidal effect by soil treatment (Table 19, symbol L); format: in vivo, windgrass (Apera spica-venti); conditions: amount of applied herbicide 320 g/ha
In short: as §3

velvetleaf [9] = test: Test Example 4: herbicidal effect by soil treatment (Table 19, symbol M); format: in vivo, velvetleaf (Abutilon theophrasti); conditions: amount of applied herbicide 320 g/ha
In short: as §3

redroot pigweed [10] = test: Test Example 4: herbicidal effect by soil treatment (Table 19, symbol N); format: in vivo, redroot pigweed (Amaranthus retroflexus); conditions: amount of applied herbicide 320 g/ha
In short: as §3

lambsquarters [11] = test: Test Example 4: herbicidal effect by soil treatment (Table 19, symbol O); format: in vivo, lambsquarters (Chenopodium album); conditions: amount of applied herbicide 320 g/ha
In short: as §3

chickweed [12] = test: Test Example 4: herbicidal effect by soil treatment (Table 19, symbol P); format: in vivo, common chickweed (Stellaria media); conditions: amount of applied herbicide 320 g/ha
In short: as §3

persian speedwell [13] = test: Test Example 4: herbicidal effect by soil treatment (Table 19, symbol R); format: in vivo, Persian speedwell (Veronica persica); conditions: amount of applied herbicide 320 g/ha
In short: as §3

southern crabgrass [14] = test: Test Example 5: herbicidal effect by foliage application, plastic box (Table 20, symbol F); format: in vivo, southern crabgrass (Digitaria ciliaris); conditions: foliage application
In short: (§4)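 Foliar spray test: emulsion formulation diluted in water to a set application rate, sprayed onto 14-day-old plants raised in diluvial soil at 25° C to 30° C under glass. Both herbicidal effect and crop effect rated visually three weeks later.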

green foxtail [15] = test: Test Example 5: herbicidal effect by foliage application, plastic box (Table 20, symbol G); format: in vivo, green foxtail (Setaria viridis); conditions: foliage application
In short: as §4

barnyard grass [16] = test: Test Example 5: herbicidal effect by foliage application, plastic box (Table 20, symbol H); format: in vivo, barnyard grass (Echinochloa crus-galli); conditions: foliage application
In short: as §4

wild oat [17] = test: Test Example 5: herbicidal effect by foliage application, plastic box (Table 20, symbol I); format: in vivo, wild oat (Avena fatua); conditions: foliage application
In short: as §4

blackgrass [18] = test: Test Example 5: herbicidal effect by foliage application, plastic box (Table 20, symbol J); format: in vivo, blackgrass (Alopecurus myosuroides); conditions: foliage application
In short: as §4

Italian ryegrass [19] = test: Test Example 5: herbicidal effect by foliage application, plastic box (Table 20, symbol K); format: in vivo, Italian ryegrass (Lolium multiflorum); conditions: foliage application
In short: as §4

windgrass [20] = test: Test Example 5: herbicidal effect by foliage application, plastic box (Table 20, symbol L); format: in vivo, windgrass (Apera spica-venti); conditions: foliage application
In short: as §4

velvetleaf [21] = test: Test Example 5: herbicidal effect by foliage application, plastic box (Table 20, symbol M); format: in vivo, velvetleaf (Abutilon theophrasti); conditions: foliage application
In short: as §4

redroot pigweed [22] = test: Test Example 5: herbicidal effect by foliage application, plastic box (Table 20, symbol N); format: in vivo, redroot pigweed (Amaranthus retroflexus); conditions: foliage application
In short: as §4

lambsquarters [23] = test: Test Example 5: herbicidal effect by foliage application, plastic box (Table 20, symbol O); format: in vivo, lambsquarters (Chenopodium album); conditions: foliage application
In short: as §4

chickweed [24] = test: Test Example 5: herbicidal effect by foliage application, plastic box (Table 20, symbol P); format: in vivo, common chickweed (Stellaria media); conditions: foliage application
In short: as §4

persian speedwell [25] = test: Test Example 5: herbicidal effect by foliage application, plastic box (Table 20, symbol R); format: in vivo, Persian speedwell (Veronica persica); conditions: foliage application
In short: as §4

[26] = AAH 320 g/ha, evaluated three weeks after application
[27] = 320 g/ha, three weeks after application

CCOC(=O)OC(C)Oc1c(C)nn(C)c(=O)c1-c1c(-c2ccc(OC(F)F)cc2)sc2ccc(F)cc12 (stereo not drawn) [2-308]
herbicidal effect rating, A: late watergrass (late watergrass): 3 (Herbicidal rate of 40% or more and less than 70%) | herbicidal effect rating, B: Japanese bulrush (Japanese bulrush): 0 (Herbicidal rate of 5% or less (almost no effect)) | herbicidal effect rating, C: oval-leafed pondweed (oval-leafed pondweed): 0 (Herbicidal rate of 5% or less (almost no effect)) | herbicidal effect on H: barnyard grass (barnyard grass [1]): 5 (Herbicidal rate of 90% or more (almost completely withered)) | herbicidal effect on D: Chinese sprangletop (Chinese sprangletop): 3 (Herbicidal rate of 40% or more and less than 70%) | herbicidal effect on E: rice flat sedge (rice flat sedge): 4 (Herbicidal rate of 70% or more and less than 90%) | herbicidal effect on F: southern crabgrass (southern crabgrass [2]): 0 (Herbicidal rate of 5% or less (almost no effect)) | herbicidal effect on G: green foxtail (green foxtail [3]): 0 (Herbicidal rate of 5% or less (almost no effect)) | herbicidal effect on H: barnyard grass (barnyard grass [4]): 0 (Herbicidal rate of 5% or less (almost no effect)) | herbicidal effect on I: wild oat (wild oat [5]): 0 (Herbicidal rate of 5% or less (almost no effect)) | herbicidal effect on J: blackgrass (blackgrass [6]): 0 (Herbicidal rate of 5% or less (almost no effect)) | herbicidal effect on K: Italian ryegrass (Italian ryegrass [7]): 0 (Herbicidal rate of 5% or less (almost no effect)) | herbicidal effect on L: windgrass (windgrass [8]): 0 (Herbicidal rate of 5% or less (almost no effect)) | herbicidal effect on M: velvetleaf (velvetleaf [9]): 0 (Herbicidal rate of 5% or less (almost no effect)) | herbicidal effect on N: redroot pigweed (redroot pigweed [10]): 0 (Herbicidal rate of 5% or less (almost no effect)) | herbicidal effect on O: lambsquarters (lambsquarters [11]): 0 (Herbicidal rate of 5% or less (almost no effect)) | herbicidal effect on P: chickweed (chickweed [12]): 0 (Herbicidal rate of 5% or less (almost no effect)) | herbicidal effect on R: persian speedwell (persian speedwell [13]): 5 (Herbicidal rate of 90% or more (almost completely withered)) | F: southern crabgrass, herbicidal effect (criteria 0-5) (southern crabgrass [14]; [26]): 1 (Herbicidal rate of 5% or more and less than 20%) | G: green foxtail, herbicidal effect (criteria 0-5) (green foxtail [15]; [26]): 5 (Herbicidal rate of 90% or more (almost completely withered)) | H: barnyard grass, herbicidal effect (criteria 0-5) (barnyard grass [16]; [26]): 4 (Herbicidal rate of 70% or more and less than 90%) | I: wild oat, herbicidal effect (criteria 0-5) (wild oat [17]; [26]): 0 (Herbicidal rate of 5% or less (almost no effect)) | J: blackgrass, herbicidal effect (criteria 0-5) (blackgrass [18]; [26]): 0 (Herbicidal rate of 5% or less (almost no effect)) | K: Italian ryegrass, herbicidal effect (criteria 0-5) (Italian ryegrass [19]; [26]): 0 (Herbicidal rate of 5% or less (almost no effect)) | L: windgrass, herbicidal effect (criteria 0-5) (windgrass [20]; [26]): 0 (Herbicidal rate of 5% or less (almost no effect)) | M: velvetleaf, herbicidal effect (criteria 0-5) (velvetleaf [21]; [26]): 5 (Herbicidal rate of 90% or more (almost completely withered)) | N: redroot pigweed, herbicidal effect (criteria 0-5) (redroot pigweed [22]; [26]): 4 (Herbicidal rate of 70% or more and less than 90%) | O: lambsquarters, herbicidal effect (criteria 0-5) (lambsquarters [23]; [26]): 5 (Herbicidal rate of 90% or more (almost completely withered)) | P: chickweed, herbicidal effect (criteria 0-5) (chickweed [24]; [26]): 5 (Herbicidal rate of 90% or more (almost completely withered)) | R: persian speedwell, herbicidal effect (criteria 0-5) (persian speedwell [25]; [26]): 5 (Herbicidal rate of 90% or more (almost completely withered))

CCc1nn(C)c(=O)c(-c2c(-c3ccc(F)cc3)sc3ccc(F)cc23)c1O [2-406]
herbicidal effect rating, A: late watergrass (late watergrass): 2 (Herbicidal rate of 20% or more and less than 40%) | herbicidal effect rating, B: Japanese bulrush (Japanese bulrush): 0 (Herbicidal rate of 5% or less (almost no effect)) | herbicidal effect rating, C: oval-leafed pondweed (oval-leafed pondweed): 0 (Herbicidal rate of 5% or less (almost no effect)) | herbicidal effect on H: barnyard grass (barnyard grass [1]): 4 (Herbicidal rate of 70% or more and less than 90%) | herbicidal effect on D: Chinese sprangletop (Chinese sprangletop): 4 (Herbicidal rate of 70% or more and less than 90%) | herbicidal effect on E: rice flat sedge (rice flat sedge): 5 (Herbicidal rate of 90% or more (almost completely withered)) | herbicidal effect, F: southern crabgrass (southern crabgrass [2]): 2 (Herbicidal rate of 20% or more and less than 40%) | herbicidal effect, G: green foxtail (green foxtail [3]): 4 (Herbicidal rate of 70% or more and less than 90%) | herbicidal effect, H: barnyard grass (barnyard grass [4]): 4 (Herbicidal rate of 70% or more and less than 90%) | herbicidal effect, I: wild oat (wild oat [5]): 0 (Herbicidal rate of 5% or less (almost no effect)) | herbicidal effect, J: blackgrass (blackgrass [6]): 0 (Herbicidal rate of 5% or less (almost no effect)) | herbicidal effect, K: Italian ryegrass (Italian ryegrass [7]): 3 (Herbicidal rate of 40% or more and less than 70%) | herbicidal effect, L: windgrass (windgrass [8]): 0 (Herbicidal rate of 5% or less (almost no effect)) | herbicidal effect, M: velvetleaf (velvetleaf [9]): 3 (Herbicidal rate of 40% or more and less than 70%) | herbicidal effect, N: redroot pigweed (redroot pigweed [10]): 4 (Herbicidal rate of 70% or more and less than 90%) | herbicidal effect, O: lambsquarters (lambsquarters [11]): 3 (Herbicidal rate of 40% or more and less than 70%) | herbicidal effect, P: chickweed (chickweed [12]): 3 (Herbicidal rate of 40% or more and less than 70%) | herbicidal effect, R: persian speedwell (persian speedwell [13]): 0 (Herbicidal rate of 5% or less (almost no effect)) | F: southern crabgrass, herbicidal effect grade (southern crabgrass [14]; [27]): 3 (Herbicidal rate of 40% or more and less than 70%) | G: green foxtail, herbicidal effect grade (green foxtail [15]; [27]): 5 (Herbicidal rate of 90% or more (almost completely withered)) | H: barnyard grass, herbicidal effect grade (barnyard grass [16]; [27]): 4 (Herbicidal rate of 70% or more and less than 90%) | I: wild oat, herbicidal effect grade (wild oat [17]; [27]): 0 (Herbicidal rate of 5% or less (almost no effect)) | J: blackgrass, herbicidal effect grade (blackgrass [18]; [27]): 3 (Herbicidal rate of 40% or more and less than 70%) | K: Italian ryegrass, herbicidal effect grade (Italian ryegrass [19]; [27]): 4 (Herbicidal rate of 70% or more and less than 90%) | L: windgrass, herbicidal effect grade (windgrass [20]; [27]): 4 (Herbicidal rate of 70% or more and less than 90%) | M: velvetleaf, herbicidal effect grade (velvetleaf [21]; [27]): 5 (Herbicidal rate of 90% or more (almost completely withered)) | N: redroot pigweed, herbicidal effect grade (redroot pigweed [22]; [27]): 5 (Herbicidal rate of 90% or more (almost completely withered)) | O: lambsquarters, herbicidal effect grade (lambsquarters [23]; [27]): 4 (Herbicidal rate of 70% or more and less than 90%) | P: chickweed, herbicidal effect grade (chickweed [24]; [27]): 5 (Herbicidal rate of 90% or more (almost completely withered)) | R: persian speedwell, herbicidal effect grade (persian speedwell [25]; [27]): 5 (Herbicidal rate of 90% or more (almost completely withered))
